Source: patent US7855213B2 (AstraZeneca AB, priority 2006, dated 2010)
Where a name gives a salt, the structure may show the parent alone.

Target: T1, human β-Secretase (Homo sapiens, UniProt P56817)
T1 construct: The soluble part of the human β-Secretase (AA 1-AA 460) was cloned; made in house
Assay: TR-FRET assay
Type: biochemical

T1 sequence (P56817 22-460): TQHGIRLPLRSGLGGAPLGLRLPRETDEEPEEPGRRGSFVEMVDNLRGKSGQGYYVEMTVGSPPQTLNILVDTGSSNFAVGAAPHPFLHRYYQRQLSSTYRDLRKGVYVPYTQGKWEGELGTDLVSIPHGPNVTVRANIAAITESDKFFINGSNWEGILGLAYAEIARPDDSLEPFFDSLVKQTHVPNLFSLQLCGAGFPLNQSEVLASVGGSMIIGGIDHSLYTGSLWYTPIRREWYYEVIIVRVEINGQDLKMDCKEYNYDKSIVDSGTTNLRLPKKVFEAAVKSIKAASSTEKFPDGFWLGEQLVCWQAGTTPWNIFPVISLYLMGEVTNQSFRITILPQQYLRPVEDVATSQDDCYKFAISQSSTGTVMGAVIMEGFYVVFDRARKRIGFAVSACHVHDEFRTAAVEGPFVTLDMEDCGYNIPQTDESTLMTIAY

SMILES	IC50 [nM]
NC1=NC(c2ccncc2)(c2cccc(-c3ccsc3C=O)c2)c2ccccc21 (centres unmarked) [Example 61, 3-[3-(3-Amino-1-pyridin-4-yl-1H-isoindol-1-yl)phenyl]thiophene-2-carbaldehyde]	2000
NC(=O)c1ccccc1-c1cccc(C2(c3ccncc3)N=C(N)c3ccccc32)c1 (centres unmarked) [Example 64, 3′-(3-Amino-1-pyridin-4-yl-1H-isoindol-1-yl)biphenyl-2-carboxamide 0.25 acetate]	> 3100
NC1=NC(c2ccncc2)(c2cccc(-c3cncnc3)c2)c2cc(F)ccc21 (centres unmarked) [Example 84, 6-Fluoro-1-pyridin-4-yl-1-(3-pyrimidin-5-ylphenyl)-1H-isoindol-3-amine]	94
NC1=NC(c2ccncc2)(c2cccc(-c3cncc(F)c3)c2)c2ccccc21 (centres unmarked) [Example 67, 1-[3-(5-Fluoropyridin-3-yl)phenyl]-1-pyridin-4-yl-1H-isoindol-3-amine 0.75 acetate]	92
COc1ccc(C2(c3cccc(-c4cccnc4F)c3)N=C(N)c3ccccc32)cc1 (centres unmarked) [Example 10, 3-[3-(2-Fluoro-pyridin-3-yl)-phenyl]-3-(4-methoxy-phenyl)-3H-isoindol-1-ylamine trifluoroacetate]	78
